Data from PMC10759932 (Nature cell biology, 2023).

How the values were obtained:
PcaK = biological target: T1, PcaK (Pseudomonas putida, UniProt Q51955); test: radiolabelled uptake into E. coli cells; format: cell-based; details: 50 μM 4-HB; whole E. coli cells; labelled compound
T1 sequence (Q51955 1-448): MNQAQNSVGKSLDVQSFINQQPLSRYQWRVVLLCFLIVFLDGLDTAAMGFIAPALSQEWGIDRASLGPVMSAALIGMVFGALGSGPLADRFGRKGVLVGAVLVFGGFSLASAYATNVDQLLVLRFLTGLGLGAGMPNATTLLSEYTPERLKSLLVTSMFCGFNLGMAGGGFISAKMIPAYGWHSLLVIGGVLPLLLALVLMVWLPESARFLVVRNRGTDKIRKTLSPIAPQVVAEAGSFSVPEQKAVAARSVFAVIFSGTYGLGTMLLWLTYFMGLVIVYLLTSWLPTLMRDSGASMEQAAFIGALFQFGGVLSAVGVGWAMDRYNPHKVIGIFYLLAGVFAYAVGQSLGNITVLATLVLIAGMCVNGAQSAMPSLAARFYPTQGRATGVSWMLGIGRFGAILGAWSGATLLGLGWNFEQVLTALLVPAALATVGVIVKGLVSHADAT

S. pombe Hem25p = S. pombe Hem25p (Schizosaccharomyces pombe, UniProt Q9P6N6); details: whole E. coli cells; labelled compound
S. pombe Hem25p, sequence (Q9P6N6 whole entry): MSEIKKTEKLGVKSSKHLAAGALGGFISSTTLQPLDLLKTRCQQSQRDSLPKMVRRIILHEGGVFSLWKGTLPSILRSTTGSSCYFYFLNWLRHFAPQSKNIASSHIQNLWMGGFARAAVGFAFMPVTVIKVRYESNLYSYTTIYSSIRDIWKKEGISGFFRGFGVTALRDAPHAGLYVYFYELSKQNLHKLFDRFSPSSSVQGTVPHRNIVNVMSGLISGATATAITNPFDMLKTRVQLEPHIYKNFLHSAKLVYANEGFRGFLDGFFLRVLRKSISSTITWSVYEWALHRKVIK

| radiolabelled uptake into E. coli cells (S. pombe Hem25p) | Compound | radiolabelled uptake into E. coli cells (PcaK) |
| --- | --- | --- |
|  | O=C(O)c1ccc(O)cc1 [4-HB] | Uptake of 4-HB was only seen when the known bacterial 4-HB transporter PcaK was expressed |
| Hem25p from S. pombe and S. cerevisiae | C=C(C)CCOP(=O)(O)OP(=O)(O)O [IPP] |  |
